Measurements reported in patent publication US20240165082A1, “ORALLY ADMINISTERED COMPOSITIONS FOR CANCER TREATMENT” (priority 2021, published 2024).

Legend:
in vitro = conditions: human, pH 7.4
Procedure: Phosphate-buffered saline (PBS, Cat. #10010 from ThermoFisher Scientific, Waltham, MA, USA) was adjusted to pH 7.4 and used as the receiver buffer. […] Tissues were received and stored at 4° C. until use. The tissue inserts were transferred to plates containing MATTEK SMI-100 culture medium using sterile technique and placed in a humidified incubator (37±1° C., 5% CO2) overnight for recovery prior to use, according to MATTEK protocols.
The control was PBS, pH 7.4 buffer for baseline endogenous histamine. Reference B was histamine α,α,β,β-d4 dihydrochloride (1 mg/mL) in PBS, pH 7.4. Reference A was a 300 μL dose added to the apical side of the tissue. […] In each trial, a 100 μL sample was immediately collected as the 0-minute donor sample and was not replenished. The pharmaceutical composition, the control, and Reference B were dosed with 200 μL, and 10 μL donor samples and collected at each time point (0, 15, 30, 60, and 120 minutes) without replacement. Six replicates of each treatment were conducted. […] The assay plates were transferred to a humidified incubator (37±1° C., 5% CO2) between sampling time points. […] Upon completion of the study, all samples were stored at −80° C. until analysis by LC-MS/MS. […]
The cumulative receiver concentration of each compound at each time point (Cc) was calculated as the sum of the measured concentration at that time point (Cm) and 0.2/5 of the measured concentrations at the previous time points (a 0.2 mL receiver sample out of the 5 mL total receiver volume was withdrawn and replaced at each time point, except for the final time point which was not replaced).
The Papp for each compound was calculated as follows: Papp=(dCr/dt)×Vr/(A×Cn), where dCr/dt is the slope of the cumulative receiver concentration (in μM) vs. time (t); Vr is the volume of the receiver compartment (5 cm^3); A is the exposed surface area for permeation (0.6 cm^2); and Cn is the nominal concentration in the donor compartment (in μM).
The recovery (%) at the final timepoint for histamine was calculated as follows: Recovery=100×((Vr120×Cr^final)+(Vd^initial×Cd^initial)+(Vd^15×Cd^15)+(Vd^30×Cd^30)+(Vd^60×Cd^60)+(Vd^final×Cd^final))/(Vd×Cn).
The flux was calculated using the following equation: Flux(overall)=dCc/dt×Vr/A; where dCc/dt is the slope of the cumulative receiver concentration (in μM) vs. time (t); Vr is the volume of the receiver compartment (in cm^3); t is the duration of the flux period in the linear range (in minutes); and A is the diffusional surface area of the exposed tissue surface (0.6 cm^2).

[1] = oral administration; inferred from Papp of Example 12
Source text: Previous studies of the drug permeability data in Caco-2 cells for predicting human drug absorption data plotted apparent permeability (Papp) values against the drug fraction absorbed in humans expressed as a percentage of the administered dose (FA). […] (Turco, et al. Toxicology in Vitro, 2010, 13-20).

`CC(C)NCC(O)COc1ccc(CC(N)=O)cc1` (centres unmarked) [atenolol] showed a recovery at 120 min (in vitro) of 89.1 ± 5.2%.

Compound `Cl.Cl.NCCc1c[nH]cn1` [histamine dihydrochloride] has a Papp A→B at 120 min (in vitro) of 18.7 ± 1.5 ×10⁻⁶ cm/s, a Papp A→B at 120 min, 89969 μM (in vitro) of 18.7 ± 1.5 ×10⁻⁶ cm/s and a recovery at 120 min (in vitro) of 93.6%. For the same compound, the “absorbed in the small intestine, amount of the administered dosage” value [1] was “greater than 85%”.
